The values that follow are results of earlier work, collected in EP0837672B9, “PREPARATIONS AND METHODS FOR THE TREATMENT OF T CELL MEDIATED DISEASES” (YEDA RESEARCH AND DEVELOPMENT CO. LTD., priority 1995, dated 2005).

In the data set the test system is mice. To be noted: administered to mice sc in an oil vehicle such as incomplete Freund's adjuvant (IFA).

Take “p32: peptide corresponding to positions 466-485 of the human hsp60 sequence (EIIKRTLKIPAMTIAKNAGV; UniProt P10809 466-485, looked up, fragment)”: the “peptide therapy for treatment of IDDM” value is “effective”.

Regarding “p277: peptide corresponding to positions 437-460 of the human hsp 60 sequence (VLGGGCALLRCIPALDSLTPANED; UniProt P10809 437-460, looked up, fragment)”, the “peptide therapy for treatment of IDDM” value was “effective”.

“p12: peptide corresponding to positions 166-185 of the human hsp60 sequence (EEIAQVATISANGDKEIGNI; UniProt P10809 166-185, looked up, fragment)”: the “peptide therapy for treatment of IDDM” value is given as “effective”.
